Experimental data taken from patent US20240199626A1, “COMPOUNDS WITH IMPROVED CARDIAC SAFETY FOR THE TREATMENT OF CANCER AND NEURODEGENERATIVE DISORDERS” (priority 2021, published 2024).
Where two headings read alike, the source gives them in different places.

Columns and labels:
[1] = system: K-562 cells; assay: Cell viability / growth inhibition (AlamarBlue), K-562; format: cell-based; details: Homo sapiens
Experimental: (§1) K562 and K562-T315I: The Leukemia cell lines K562 were purchased and maintained as recommended by ATCC (Manassas, VA, USA). Briefly, K562 cells were cultured in suspension in RPMI1640 (ThermoFisher Scientific, USA) supplemented with 10% fetal bovine serum and Pen/Strep/L-Glutamine. […] Briefly, one million K562 cells were seeded in 6-well plates and transfected with Lipofectamine 2000 and 1 μg of CRISPR/Cas9 vector (pSpCas9(BB)-2A-GFP) incorporating the guide sequence ([…]), and Lipofectamine RNAiMax and 4 μg of ssDNA donors (1ug of each donor, Supplementary Table 1) for each well of a 6-well plate.
(§2) The effects of the compounds on cell viability were evaluated using the AlamarBlue assay using the NCI60 methodology.^57 Cells were harvested and plated in 384-well plates (Greiner μClear) at a concentration of 1250 cells/well in 40 μL, and incubated for 24 h at 37° C. The next day, test compounds were added to the cells as a 2×40μL solution, and incubated for 48 h at 37° C.

[2] = system: hiPSC-CMs; assay: Cardiotoxicity assay in hiPSC-CMs (voltage transients, arrhythmia, contractility)
Experimental: iPSC-CMs: Human fibroblasts were reprogrammed to induced pluripotent stem cells (iPSCs) using Sendai viral vectors. All protocols were approved by the Stanford University Institutional Review Board. The obtained hiPSC clones were cultured in E8 cell culture media (Life Technologies) in plates coated growth factor-reduced Matrigel (Corning) until at least passage 20 before differentiation. hiPSC cells were differentiated into cardiomyocytes (CMs) utilizing a chemically defined cardiomyocyte differentiation protocol^55 and fatty acid rich maturation protocol.^56
hiPSC-CMs were plated on Matrigel coated 384-well plates at 20,000 cells per well (Greiner μClear) in 50 μl cardiomyocyte media (RMPI, B27) supplemented with 10% knock-out replacement serum. The subsequent day an additional 50 μl of media was added and cells were grown for a minimum of 5 days prior to analysis. Action potential kinetics and contractility was measured on the same cells sequentially. First, action potential kinetics were recorded using the protocol as established by Mckeithan et al.^58 Briefly, the cells were washed 5 times with FluoroBrite, loaded with VF2.1.CI dye for 50 min at 37° C., and washed again 5 times with FluoroBrite. Voltage time series were acquired at a frequency of 33 Hz for a duration of 10 s on the IC200 Kinetic Imaging Platform (Vala Sciences). […] The resulting recordings were subsequently analyzed using Vala Sciences and custom software, action potential kinetics, action potential durations and rates,^58 or contractile activity parameters (peak divergence, area under the curve) were used as measures of cardiotoxicity.^59

[3] = Serum cardiac troponin levels in treated mice; details: 30 mg/kg daily by oral gavage; indication of cardiac damage
[4] = system: HEK cells; assay: HEK cell growth inhibition
[5] = system: K-562-T315I cells (K-562 cells expressing BCR-ABL^T315I); assay: Cell viability / growth inhibition (AlamarBlue), K-562-T315I; format: cell-based; details: Homo sapiens, K562, read-out: Cell Inhibition IC50 K-562-T315I
Experimental: as §1, §2

[6] = K562, Table 5, ± SD, read-out: Cell Inhibition IC50 K562

Cc1nc(Nc2ncc(C(=O)Nc3c(C)cccc3Cl)s2)cc(N2CCN(CCO)CC2)n1 [Dasatinib]
IC50 [1, 6]: 0.4 nM
Cardiotoxicity (overall maximum toxic dose) ([2]; Table 5): >10 µM

Cc1nccc(Nc2ncc(C(=O)Nc3c(C)cccc3Cl)s2)n1 [Compound 3b, N-(2-chloro-6-methylphenyl)-2-((2-methylpyrimidin-4-yl)amino) thiazole-5-carboxamide]
Cardiotoxicity (overall maximum toxic dose) ([2]; Table 1): >10 µM

O=C(Nc1ccc(OC(F)(F)Cl)cc1)c1cnc(N2CC[C@@H](O)C2)c(-c2ccn[nH]2)c1 [Asciminib]
Cardiotoxicity (overall maximum toxic dose) ([2]; Table 5): 4.81 µM

Cc1ccc(C(=O)Nc2ccc(CN3CCN(C)CC3)c(C(F)(F)F)c2)cc1 [Compound 21a, 4-methyl-N-(4-((4-methylpiperazin-1-yl)methyl)-3-(trifluoromethyl)phenyl)benzamide]
concentration at which cardiotoxicity was observed / cardiac-safe up to [2]: 1450 nM
Cardiotoxicity (overall maximum toxic dose) ([2]; Table 4): 1.45 µM

C#Cc1cc(C(=O)Nc2ccc(CN3CCN(C)CC3)c(C(F)(F)F)c2)ccc1C [Compound 19, 3-ethynyl-4-methyl-N-(4-((4-methylpiperazin-1-yl)methyl)-3-(trifluoromethyl)phenyl) benzamide]
Cardiotoxicity (overall maximum toxic dose) ([2]; Table 4): 1.13 µM

Cc1ccc(C(=O)N2CCN(C)CC2)cc1C#Cc1cnc2cccnn12 [Compound 10a, (3-(imidazo[1,2-b]pyridazin-3-ylethynyl)-4-methylphenyl)(4-methylpiperazin-1-yl)methanone]
Cardiotoxicity (overall maximum toxic dose) ([2]; Table 3): >10 µM

C#Cc1cc(C(=O)Nc2ccc(CN3CCN(C)CC3)c(C(F)(F)F)c2)ccc1OC [Compound 29, 3-ethynyl-4-methoxy-N-(4-((4-methylpiperazin-1-yl)methyl)-3-(trifluoromethyl)phenyl)benzamide]
concentration at which cardiotoxicity was observed / cardiac-safe up to [2]: 1340 nM
Cardiotoxicity (overall maximum toxic dose) ([2]; Table 4): 1.34 µM

C#Cc1cc(C(=O)Nc2cc(-n3cnc(C)c3)cc(C(F)(F)F)c2)ccc1C [Compound 26, 3-ethynyl-4-methyl-N-(3-(4-methyl-1H-imidazol-1-yl)-5-(trifluoromethyl)phenyl)benzamide]
Cardiotoxicity (overall maximum toxic dose) ([2]; Table 4): >10 µM

Cc1ccc(C(=O)Nc2ccc(CN3CCN(C)CC3)c(C(F)(F)F)c2)cc1C#Cc1cnc2cccnn12 [Ponatinib]
IC50 ([1]; K562, read-out: Cell Inhibition IC50 K562): 0.5 nM
effect on cardiomyocyte contractility (peak contraction amplitude) ([2]; FIGS. 3D, 3E, hiPSC-CMs from two healthy donors): potently suppresses cardiomyocyte contractility
Cardiotoxicity (overall maximum toxic dose) ([2]; Table 5): 0.47 µM
serum cardiac troponin levels [3]: increased troponin levels
inhibition of growth of healthy HEK cells at [4]: 1.1 µM

Cc1cn(-c2cc(NC(=O)c3ccc(C)c(Nc4nccc(-c5cccnc5)n4)c3)cc(C(F)(F)F)c2)cn1 [Nilotinib]
IC50 [1, 6]: 26 nM
Cardiotoxicity (overall maximum toxic dose) ([2]; Table 5): 1.12 µM
IC50 [5]: > 10000 nM
